Reference: ChEMBL document CHEMBL5375942, “Discovery of a Potent Chloroacetamide GPX4 Inhibitor with Bioavailability to Enable Target Engagement in Mice, a Potential Tool Compound for Inducing Ferroptosis In Vivo” (J Med Chem, 2023)
Calls of active or inactive are those of the source. No cut-off for these calls is given here.

What was measured:
NCI-H1703 [1] = test: Induction of ferroptosis in human NCI-H1703 cells assessed as cell viability incubated for 72 hrs by CellTiter-Glo luminescent cell viability assay; assay type: functional, cell-based; conditions: NCI-H1703, 72 h
NCI-H1703 [2] = test: Induction of ferroptosis in human NCI-H1703 cells assessed as cell viability incubated for 72 hrs in presence of ferrostatin-1 by CellTiter-Glo luminescent cell viability assay; assay type: functional, cell-based; conditions: NCI-H1703, 72 h
WSUDLCL2 [3] = test: Effect on tumor volume in human WSUDLCL2 cells subcutaneously inoculated in CB17 SCID-Beige mouse tumor model at 50 to 100 mg/kg, ip measured upto day 20; assay type: functional, organism-based; conditions: dose 50-100 mg/kg
WSUDLCL2 [4] = test: Induction of ferroptosis in human WSUDLCL2 cells assessed as cell viability incubated for 72 hrs by CellTiter-Glo luminescent cell viability assay; assay type: functional, cell-based
HT-1080 [5] = test: Induction of ferroptosis in GPX4-dependent human HT-1080 cells assessed as cell viability incubated for 6 hrs by time-course cell viability assay; assay type: functional, cell-based; conditions: HT-1080, 6 h
[6] = target: Phospholipid hydroperoxide glutathione peroxidase GPX4 (Mus musculus) (UniProt O70325); test: In vivo inhibition of GPX4 in SCID/Beige mouse assessed as increase in malondialdehyde level in kidney homogenate at 100 to 200 mg/kg, ip by TBAR assay; assay type: functional, organism-based; conditions: dose 100-200 mg/kg
WSUDLCL2 [7] = test: Induction of ferroptosis in human WSUDLCL2 cells assessed as cell viability incubated for 72 hrs in presence of liproxstatin-1 by CellTiter-Glo luminescent cell viability assay; assay type: functional, cell-based
[8] = target: Phospholipid hydroperoxide glutathione peroxidase GPX4 (Mus musculus) (UniProt O70325); test: In vivo inhibition of GPX4 in SCID/Beige mouse assessed as increase in malondialdehyde level in plasma at 100 to 200 mg/kg, ip by TBAR assay; assay type: functional, organism-based; conditions: dose 100-200 mg/kg
HT-1080 [9] = test: Induction of ferroptosis in GPX4-dependent human HT-1080 cells assessed as cell viability incubated for 24 hrs in presence of 40% human plasma by time-course cell viability assay; assay type: functional, cell-based; conditions: HT-1080, 24 h
HT-1080 [10] = test: Induction of ferroptosis in GPX4-dependent human HT-1080 cells assessed as cell viability incubated for 3 hrs in presence of 40% human plasma by time-course cell viability assay; assay type: functional, cell-based; conditions: HT-1080, 3 h
WSUDLCL2 [11] = test: Induction of ferroptosis in human WSUDLCL2 cells assessed as cell viability incubated for 72 hrs in presence of ferrostatin-1 by CellTiter-Glo luminescent cell viability assay; assay type: functional, cell-based
[12] = target: Phospholipid hydroperoxide glutathione peroxidase GPX4 (Mus musculus) (UniProt O70325); test: In vivo inhibition of GPX4 in SCID/Beige mouse assessed as fold increase in PTGS2 transcription in kidney homogenate at 100 to 200 mg/kg, ip by qPCR analysis relative to vehicle treated control; assay type: functional, organism-based; conditions: dose 100-200 mg/kg
WSUDLCL2 [13] = test: In vivo target engagement at GPX4 in human WSUDLCL2 cells subcutaneously inoculated in CB17 SCID-Beige mouse assessed as target engagement in tumor at 50 to 100 mg/kg, ip measured upto day 20 by Western blot analysis; assay type: functional, organism-based; conditions: dose 50-100 mg/kg
HT-1080 [14] = test: Induction of ferroptosis in GPX4-dependent human HT-1080 cells assessed as cell viability incubated for 24 hrs by time-course cell viability assay; assay type: functional, cell-based; conditions: HT-1080, 24 h
HT-1080 [15] = test: Induction of ferroptosis in GPX4-dependent human HT-1080 cells assessed as cell viability incubated for 3 hrs by time-course cell viability assay; assay type: functional, cell-based; conditions: HT-1080, 3 h
HT-1080 [16] = test: Induction of ferroptosis in GPX4-dependent human HT-1080 cells assessed as cell viability incubated for […] by time-course cell viability assay; assay type: functional, cell-based
HT-1080 [17] = test: Induction of ferroptosis in GPX4-dependent human HT-1080 cells assessed as cell viability incubated for […] in presence of 40% human plasma by time-course cell viability assay; assay type: functional, cell-based
HT-1080 [18] = test: Induction of ferroptosis in GPX4-dependent human HT-1080 cells assessed as cell viability incubated for 6 hrs in presence of 40% human plasma by time-course cell viability assay; assay type: functional, cell-based; conditions: HT-1080, 6 h
[19] = Metabolic stability in human liver microsomes assessed as unbound intrinsic clearance; assay type: ADME, Microsome
[20] = Stability in mouse plasma assessed as half life; assay type: ADME, cell-free
[21] = Stability in human plasma assessed as half life; assay type: ADME, cell-free
[22] = Metabolic stability in mouse liver microsomes assessed as unbound intrinsic clearance; assay type: ADME, Microsome
[23] = Plasma clearance in iv dosed mouse; assay type: ADME, organism-based
[24] = Unbound fraction in human plasma; assay type: ADME, cell-free
[25] = target: Phospholipid hydroperoxide glutathione peroxidase GPX4 (Mus musculus) (UniProt O70325); test: Target engagement at GPX4 in mouse 4T1 cells assessed as mass change between covalently bound protein and unbound protein at 0.01 to 1 ug/ml measured after 2 hrs by Western blot analysis; assay type: cell-based; conditions: dose 0.01-1 µg/ml
[26] = Aqueous solubility of the compound at pH 7; assay type: physicochemical
[27] = Aqueous solubility of the compound at pH 1; assay type: physicochemical
[28] = Half life in CB17 SCID-Beige mouse subcutaneously inoculated with WSUDLCL2 cells at 30 mg/kg, ip; assay type: ADME, organism-based; conditions: in vivo
[29] = AUC in CB17 SCID-Beige mouse subcutaneously inoculated with WSUDLCL2 cells at 30 mg/kg, ip; assay type: ADME, organism-based; set-up: dose 30 mg/kg, route ip; conditions: in vivo
[30] = Cmax in CB17 SCID-Beige mouse subcutaneously inoculated with WSUDLCL2 cells at 30 mg/kg, ip; assay type: ADME, organism-based; set-up: dose 30 mg/kg, route ip; conditions: in vivo

Phospholipid hydroperoxide glutathione peroxidase GPX4 (Mus musculus), sequence (O70325 whole entry): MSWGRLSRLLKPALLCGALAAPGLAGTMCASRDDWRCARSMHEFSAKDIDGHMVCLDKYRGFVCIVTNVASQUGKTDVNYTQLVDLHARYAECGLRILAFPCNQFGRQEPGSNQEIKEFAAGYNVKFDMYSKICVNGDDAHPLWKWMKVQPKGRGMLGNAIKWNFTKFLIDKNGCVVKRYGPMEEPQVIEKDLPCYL

EC50 (NCI-H1703 [1]) [nM]	EC50 (NCI-H1703 [2]) [nM]	CL free [19] [mL/min/kg]	half-life [20] [h]	half-life [21] [h]	CL free [22] [mL/min/kg]	SMILES	also measured
28	> 10000					COC(=O)[C@H]1Cc2c([nH]c3ccccc23)[C@H](c2ccc(F)cc2Cl)N1C(=O)CCl	
117	4740					COC(=O)[C@H]1Cc2c([nH]c3ccccc23)[C@H](c2ccc(S(C)(=O)=O)cc2)N1C(=O)CCl	Activity (WSUDLCL2 [3]): inactive; Activity (WSUDLCL2 [4]): Active; EC50 (HT-1080 [5]): 170 nM; Activity [6]: Active; Activity (WSUDLCL2 [7]): inactive; Activity [8]: Active; EC50 (HT-1080 [9]): 520 nM; EC50 (HT-1080 [10]): 770 nM; Activity (WSUDLCL2 [11]): inactive; Activity [12]: Active; fold change (FC) [12]: 8; Activity (WSUDLCL2 [13]): Active; EC50 (HT-1080 [14]): 90 nM; EC50 (HT-1080 [15]): 270 nM; EC50 (HT-1080 [16]): 850 nM; EC50 (HT-1080 [17]): 1260 nM; EC50 (HT-1080 [18]): 490 nM
973	> 10000	35	1.33	4.03	348	COC(=O)[C@H]1Cc2c([nH]c3ccccc23)[C@H](c2ccc(S(C)(=O)=O)cn2)N1C(=O)CCl	
118	2450	28.3	2.77	3.33	235	COC(=O)[C@H]1Cc2c([nH]c3ccccc23)[C@H](c2ccc(S(C)(=O)=O)nc2)N1C(=O)CCl	solubility [26]: > 200 µM
37	3250	1420	4.38	> 16	2962	COC(=O)[C@H]1Cc2c([nH]c3ccccc23)[C@H](c2ccc(C(F)(F)F)cc2)N1C(=O)CCl	solubility [27]: < 0.8 µM; half-life [28]: 1.4 h; AUC [29]: 1.53 µg/h/mL; Cmax [30]: 410 ng/mL; solubility [26]: < 0.8 µM

The next lines start with the compound.

SMILES	EC50 (NCI-H1703 [1]) [nM]	EC50 (NCI-H1703 [2]) [nM]	CL free [19] [mL/min/kg]	half-life [20] [h]	half-life [21] [h]	CL free [22] [mL/min/kg]	also measured
COC(=O)[C@H]1Cc2c([nH]c3ccccc23)[C@H](c2ccc(OC(F)(F)F)cc2)N1C(=O)CCl	75	4270					
C#CC(=O)N1[C@@H](c2ccccc2)c2[nH]c3ccccc3c2C[C@@H]1C(=O)OC	157			0.317	0.4		
Cc1noc([C@H]2Cc3c([nH]c4ccccc34)[C@H](c3ccc(S(C)(=O)=O)cc3)N2C(=O)CCl)n1	37	2340	31.7	1.85	2.92	243	
COC(=O)c1ccc([C@H]2c3[nH]c4ccccc4c3CCN2C(=O)CCl)cc1	1390			0.2	1		
COC(=O)[C@H]1Cc2c([nH]c3ccccc23)[C@H](c2ccccc2)N1C(C)=O			183	13.7	> 16	2682	clearance [23]: 50 mL/min/kg
Cc1noc([C@H]2Cc3c([nH]c4ccccc34)[C@H](c3ccccc3)N2C(=O)CCl)n1	44	> 10000	118	2.68	6.73	910	fraction unbound [24]: 0.013
COC(=O)c1ccc([C@@H]2c3[nH]c4ccccc4c3C[C@H](C(=O)OC)N2C(=O)CCl)cc1							Activity [25]: Active
CN(C)C(=O)[C@H]1Cc2c([nH]c3ccccc23)[C@H](c2ccccc2)N1C(=O)CCl	737	3740					
